Source: PMC5458052 (Nature Communications, 2017)
Values joined by “and” are separate entries in the source; they are usually repeats but may differ in a detail not shown here. Identical values can stand only once. “Also recorded” adds a separate entry of the source. Like-named read-outs stand apart in the source and are kept apart here.

Assays:
Sigma 2 receptors = molecular target: T1, Sigma 2 receptors (Homo sapiens, UniProt Q5BJF2); assay: CEREP radioligand binding screen, Sigma 2
T1 construct: CEREP

[1] = system: Late stage gametocytes; oocysts in Anopheles stephensi mosquitoes; assay: whole plant or invertebrate; format: cell-based
CYP1A2 = CYP1A2 (Homo sapiens, UniProt P05177); assay: Cytochrome P450 inhibition CYP1A2
Sequence of CYP1A2 (P05177 whole entry): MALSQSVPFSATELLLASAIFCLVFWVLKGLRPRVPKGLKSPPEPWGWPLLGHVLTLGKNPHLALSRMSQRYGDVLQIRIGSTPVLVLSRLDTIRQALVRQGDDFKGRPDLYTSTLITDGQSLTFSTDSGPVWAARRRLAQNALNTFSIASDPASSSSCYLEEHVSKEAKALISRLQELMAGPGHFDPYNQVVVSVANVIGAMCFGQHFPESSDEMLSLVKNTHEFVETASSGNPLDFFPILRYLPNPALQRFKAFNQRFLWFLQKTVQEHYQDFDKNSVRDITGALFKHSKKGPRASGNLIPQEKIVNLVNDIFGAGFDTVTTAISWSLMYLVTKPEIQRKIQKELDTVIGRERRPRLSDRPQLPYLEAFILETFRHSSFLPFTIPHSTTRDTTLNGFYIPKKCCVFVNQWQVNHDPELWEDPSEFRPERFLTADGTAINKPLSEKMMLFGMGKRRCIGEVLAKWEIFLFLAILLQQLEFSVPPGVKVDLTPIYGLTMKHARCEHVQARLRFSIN

CYP2C19 = CYP2C19 (Homo sapiens, UniProt P33261); assay: Cytochrome P450 inhibition CYP2C19; format: in vitro ADME
P. berghei = assay: Peters' standard 4-day suppressive test
[2] = system: P. falciparum strain 3D7A; assay: In vitro parasite reduction ratio (PRR) assay; format: cell-based, Plasmodium falciparum
[3] = Rat PK, compartmental analysis
Sigma 1 receptors = molecular target: T2, Sigma 1 receptors (Homo sapiens, UniProt Q99720); assay: CEREP radioligand binding screen, Sigma 1
T2 construct: CEREP
T2 sequence (Q99720 whole entry): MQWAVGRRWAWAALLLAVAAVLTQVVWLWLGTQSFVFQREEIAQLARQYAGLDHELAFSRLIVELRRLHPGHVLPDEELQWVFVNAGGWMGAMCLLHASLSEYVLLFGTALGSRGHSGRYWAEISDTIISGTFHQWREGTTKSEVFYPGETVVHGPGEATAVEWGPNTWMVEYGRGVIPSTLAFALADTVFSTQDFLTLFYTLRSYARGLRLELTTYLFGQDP

[4] = Mammalian cell cytotoxicity; format: cell-based; conditions: human; HeLa cells, n=3; read-out: cytotoxicity median IC50
[5] = system: P. falciparum strains (sensitive and resistant); assay: microbe, parasite or virus in culture; format: cell-based; conditions: Plasmodium falciparum
P. falciparum 3D7 = assay: In vitro antimalarial activity, drug sensitivity testing (3D7); format: cell-based; conditions: Plasmodium falciparum
Mouse micronucleus test = conditions: in vivo
[6] = system: P. falciparum clinical field isolates; assay: microbe, parasite or virus in culture; format: cell-based; conditions: Plasmodium falciparum, read-out: Median IC50
[7] = system: African variant G6PD deficient human red blood cells (huRBC); conditions: 7 days post-treatment; E209 up to 50 mg kg^−1 day^−1 for 3 days; PQ 25 mg/kg/day for 3 days
[8] = system: P. falciparum lab lines FC27 and K1; assay: microbe, parasite or virus in culture; format: cell-based; conditions: Plasmodium falciparum, median of 3 independent experiments
[9] = molecular target: T3, cardiac IKr (hERG) channel (Homo sapiens, UniProt Q12809); assay: hERG electrophysiology assay (IonWorks HT, CHO cells); format: cell-based
T3 construct: expressed in transfected cells; host or cells: CHO cells
T3 sequence (Q12809 whole entry): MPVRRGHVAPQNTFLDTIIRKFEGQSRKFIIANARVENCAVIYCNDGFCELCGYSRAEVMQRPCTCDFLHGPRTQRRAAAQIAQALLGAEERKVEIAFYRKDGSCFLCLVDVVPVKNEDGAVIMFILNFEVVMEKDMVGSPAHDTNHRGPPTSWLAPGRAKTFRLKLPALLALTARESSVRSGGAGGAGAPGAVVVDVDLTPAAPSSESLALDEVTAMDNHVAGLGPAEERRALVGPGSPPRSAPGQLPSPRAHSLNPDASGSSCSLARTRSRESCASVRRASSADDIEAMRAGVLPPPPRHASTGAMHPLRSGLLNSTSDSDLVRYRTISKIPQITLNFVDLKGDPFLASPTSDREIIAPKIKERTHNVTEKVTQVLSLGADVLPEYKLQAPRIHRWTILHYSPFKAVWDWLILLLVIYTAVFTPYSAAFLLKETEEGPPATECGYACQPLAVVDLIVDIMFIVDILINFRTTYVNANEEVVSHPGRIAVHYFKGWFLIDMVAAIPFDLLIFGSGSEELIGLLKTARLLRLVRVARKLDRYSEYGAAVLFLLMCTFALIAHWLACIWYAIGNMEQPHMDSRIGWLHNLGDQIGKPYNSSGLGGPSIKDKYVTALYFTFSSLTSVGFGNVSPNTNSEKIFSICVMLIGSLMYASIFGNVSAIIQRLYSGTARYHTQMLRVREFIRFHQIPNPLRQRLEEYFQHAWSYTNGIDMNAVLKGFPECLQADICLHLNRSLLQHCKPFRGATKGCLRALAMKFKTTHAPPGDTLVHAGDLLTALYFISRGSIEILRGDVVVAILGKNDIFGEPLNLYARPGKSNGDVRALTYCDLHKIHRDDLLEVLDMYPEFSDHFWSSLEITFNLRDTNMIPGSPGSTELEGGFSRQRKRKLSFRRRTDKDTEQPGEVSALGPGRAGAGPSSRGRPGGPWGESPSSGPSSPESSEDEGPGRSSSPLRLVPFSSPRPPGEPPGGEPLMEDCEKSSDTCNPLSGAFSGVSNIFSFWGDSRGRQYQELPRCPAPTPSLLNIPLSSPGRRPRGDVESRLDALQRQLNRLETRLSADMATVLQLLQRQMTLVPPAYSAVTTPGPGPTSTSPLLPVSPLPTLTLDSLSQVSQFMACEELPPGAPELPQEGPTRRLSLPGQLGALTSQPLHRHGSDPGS

CYP3A4 = CYP3A4 (Homo sapiens, UniProt P08684); assay: biochemical
Sequence of CYP3A4 (P08684 whole entry): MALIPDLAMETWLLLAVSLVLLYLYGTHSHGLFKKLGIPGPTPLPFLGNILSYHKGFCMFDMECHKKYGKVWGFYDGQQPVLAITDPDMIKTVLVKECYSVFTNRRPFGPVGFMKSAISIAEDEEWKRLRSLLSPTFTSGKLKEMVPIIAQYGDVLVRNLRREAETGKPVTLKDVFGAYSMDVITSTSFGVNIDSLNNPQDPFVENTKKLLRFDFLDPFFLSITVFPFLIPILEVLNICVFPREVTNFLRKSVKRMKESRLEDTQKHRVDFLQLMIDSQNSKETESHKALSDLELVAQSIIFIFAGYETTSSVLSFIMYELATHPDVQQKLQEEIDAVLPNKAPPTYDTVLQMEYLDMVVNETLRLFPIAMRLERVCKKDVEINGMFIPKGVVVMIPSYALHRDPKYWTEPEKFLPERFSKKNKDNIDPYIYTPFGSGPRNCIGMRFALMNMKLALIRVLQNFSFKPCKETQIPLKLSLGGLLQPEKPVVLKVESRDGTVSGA

[10] = Single rising oral dose MTD study in rats; conditions: both sexes, Sprague-Dawley, rat, in vivo; single oral administration; read-out: maximum-tolerated dose (MTD)
[11] = system: P. vivax clinical field isolates; assay: microbe, parasite or virus in culture; format: cell-based; conditions: Plasmodium vivax, read-out: Median IC50
[12] = In vitro intrinsic clearance, rat liver microsomes (Chem Partners); format: in vitro ADME; conditions: rat (R) liver microsomes
[13] = Metabolic stability in dog liver microsomes; format: in vitro ADME; conditions: substrate 1 µM
[14] = Human PK prediction by allometric scaling; conditions: allometric scaling from rat parameters
CYP2D6 = CYP2D6 (Homo sapiens, UniProt P10635); assay: Cytochrome P450 inhibition CYP2D6; format: in vitro ADME
Nav1.5 channel = Nav1.5 channel (Homo sapiens, UniProt Q14524); assay: Nav1.5 electrophysiology assay (IonWorks HT, CHO cells); format: cell-based; conditions: at >100 μM
Sequence of Nav1.5 channel (Q14524 whole entry): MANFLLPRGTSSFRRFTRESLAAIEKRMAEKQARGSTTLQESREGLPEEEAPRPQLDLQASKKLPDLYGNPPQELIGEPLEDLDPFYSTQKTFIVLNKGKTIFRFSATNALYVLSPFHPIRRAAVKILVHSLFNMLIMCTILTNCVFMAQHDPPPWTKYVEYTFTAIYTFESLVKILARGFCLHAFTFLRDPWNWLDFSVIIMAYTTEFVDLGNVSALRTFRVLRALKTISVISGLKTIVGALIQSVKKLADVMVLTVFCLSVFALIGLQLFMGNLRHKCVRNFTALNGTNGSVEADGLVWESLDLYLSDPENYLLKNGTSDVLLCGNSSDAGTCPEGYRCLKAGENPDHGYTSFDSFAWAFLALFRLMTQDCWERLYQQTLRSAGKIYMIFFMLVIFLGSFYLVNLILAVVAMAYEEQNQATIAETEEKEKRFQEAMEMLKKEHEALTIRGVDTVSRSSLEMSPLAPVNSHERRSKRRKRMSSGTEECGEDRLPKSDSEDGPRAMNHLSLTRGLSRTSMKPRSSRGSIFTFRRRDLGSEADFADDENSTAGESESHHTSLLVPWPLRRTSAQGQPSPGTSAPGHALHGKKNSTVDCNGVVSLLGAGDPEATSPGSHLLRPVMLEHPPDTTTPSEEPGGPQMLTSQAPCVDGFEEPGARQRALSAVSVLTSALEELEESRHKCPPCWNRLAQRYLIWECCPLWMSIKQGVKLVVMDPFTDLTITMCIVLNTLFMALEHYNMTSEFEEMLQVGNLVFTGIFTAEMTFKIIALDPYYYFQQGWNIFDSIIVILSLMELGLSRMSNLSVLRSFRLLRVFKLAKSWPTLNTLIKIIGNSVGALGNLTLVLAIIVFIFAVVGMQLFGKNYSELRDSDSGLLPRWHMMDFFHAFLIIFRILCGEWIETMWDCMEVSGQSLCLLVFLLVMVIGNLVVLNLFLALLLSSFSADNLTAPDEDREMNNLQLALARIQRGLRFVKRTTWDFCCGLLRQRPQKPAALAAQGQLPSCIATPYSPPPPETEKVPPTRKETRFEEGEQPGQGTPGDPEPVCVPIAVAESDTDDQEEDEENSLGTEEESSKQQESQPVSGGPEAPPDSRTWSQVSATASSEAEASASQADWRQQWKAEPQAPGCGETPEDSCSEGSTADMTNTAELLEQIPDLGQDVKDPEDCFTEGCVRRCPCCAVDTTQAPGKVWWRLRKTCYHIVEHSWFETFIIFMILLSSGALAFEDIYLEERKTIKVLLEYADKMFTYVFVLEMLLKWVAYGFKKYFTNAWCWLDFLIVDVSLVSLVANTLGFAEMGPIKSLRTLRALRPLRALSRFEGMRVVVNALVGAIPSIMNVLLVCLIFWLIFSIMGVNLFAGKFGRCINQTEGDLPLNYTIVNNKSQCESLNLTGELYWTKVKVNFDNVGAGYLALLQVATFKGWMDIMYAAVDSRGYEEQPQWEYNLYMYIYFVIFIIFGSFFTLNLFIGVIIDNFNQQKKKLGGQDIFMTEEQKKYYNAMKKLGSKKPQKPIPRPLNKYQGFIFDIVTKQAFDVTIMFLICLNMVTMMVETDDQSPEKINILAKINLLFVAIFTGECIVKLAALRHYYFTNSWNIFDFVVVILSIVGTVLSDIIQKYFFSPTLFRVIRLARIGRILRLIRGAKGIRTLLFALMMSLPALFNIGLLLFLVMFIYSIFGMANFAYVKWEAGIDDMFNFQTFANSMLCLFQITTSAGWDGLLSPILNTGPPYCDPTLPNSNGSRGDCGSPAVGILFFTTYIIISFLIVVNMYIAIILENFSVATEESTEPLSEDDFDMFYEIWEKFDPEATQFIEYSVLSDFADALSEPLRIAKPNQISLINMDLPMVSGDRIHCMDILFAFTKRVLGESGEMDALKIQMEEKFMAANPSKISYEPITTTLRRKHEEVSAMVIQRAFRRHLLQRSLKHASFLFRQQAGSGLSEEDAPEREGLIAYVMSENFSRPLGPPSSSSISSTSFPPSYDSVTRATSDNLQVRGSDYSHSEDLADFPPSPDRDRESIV

[15] = Mouse PK, compartmental analysis
[16] = In vitro intrinsic clearance, human liver microsomes (Chem Partners); format: in vitro ADME; conditions: human (H) liver microsomes
[17] = Rat blood stability in vitro; conditions: male, Sprague Dawley, freshly collected whole blood
CYP2C9 = CYP2C9 (Homo sapiens, UniProt P11712); assay: Cytochrome P450 inhibition CYP2C9
Sequence of CYP2C9 (P11712 whole entry): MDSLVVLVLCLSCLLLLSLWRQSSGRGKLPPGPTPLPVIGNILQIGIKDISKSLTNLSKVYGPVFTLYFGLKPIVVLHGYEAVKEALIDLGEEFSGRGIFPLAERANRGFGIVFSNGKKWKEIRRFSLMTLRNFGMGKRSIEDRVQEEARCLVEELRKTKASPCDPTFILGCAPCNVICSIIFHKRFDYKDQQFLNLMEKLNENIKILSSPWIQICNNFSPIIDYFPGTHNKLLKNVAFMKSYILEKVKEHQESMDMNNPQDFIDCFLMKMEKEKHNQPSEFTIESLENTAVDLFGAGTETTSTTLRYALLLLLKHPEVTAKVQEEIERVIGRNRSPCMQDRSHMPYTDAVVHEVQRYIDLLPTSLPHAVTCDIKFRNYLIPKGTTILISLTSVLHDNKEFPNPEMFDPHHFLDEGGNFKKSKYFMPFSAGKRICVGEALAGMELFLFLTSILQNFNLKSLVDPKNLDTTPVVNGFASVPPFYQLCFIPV

Cav1.2 channel = Cav1.2 channel (Homo sapiens, UniProt Q13936); assay: Cav1.2 electrophysiology assay (IonWorks HT, CHO cells); format: cell-based; conditions: at >100 μM
[18] = system: P. falciparum strain 3D7^0087/N9; assay: Humanized SCID mouse model of P. falciparum; format: in vivo, Plasmodium falciparum
[19] = rat, in vivo
[20] = Rat PK iv 1 mg/kg (Chem Partners); conditions: in vivo
[21] = Dog PK, compartmental analysis
in vivo = conditions: Sprague-Dawley, rat; for AUC(0-t) / Cmax: po
in vitro = conditions: human, microsomes

SMILES: FC1CCN(CCOc2ccc(C3CCC4(CC3)OOC3(OO4)C4CC5CC(C4)CC3C5)cc2)CC1 (centres unmarked) [Compound E209]
- IC50 (Sigma 2 receptors): ~0.2 µM
- transmission-blocking activity (percentage of mosquitoes with no observed oocysts) [1]: ~60% and 90%
- IC50 ([1]; Anopheles stephensi, read-out: IC50 (reduction in oocyst mean intensity)): 0.0145 µM
- IC50 (CYP1A2): > 20 µM
- IC50 (CYP2C19): > 20 µM
- parasite clearance (P. berghei; given orally, 4-day suppressive test): complete parasite clearance
- estimated ED50 (P. berghei; oral, after three doses, P. berghei infected mice): 4 mg/kg
- Lag phase ([2]; 10 × IC50): 0 h
- Log PRR ([2]; 10 × IC50): > 4.8
- Slope ([2]; 10 × IC50): −0.098
- PCT 99.9 % ([2]; 10 × IC50, parasite clearance time): < 24 h
- Absorption rate constant Ka ([3]; PO 9 mg kg^−1): 0.31 h⁻¹
- clearance ([3]; male, Sprague-Dawley, plasma, other: intravenous and oral, fitted together): 1.6 L/h/kg
- IC50 (Sigma 1 receptors): ~0.2 µM
- IC50 [4]: 2.85 µM
- IC50 ([5]; DD2, strain Dd2 (chloroquine resistant), mean ± SD n=3): 0.0077 ± 0.0015 µM
- IC50 ([5]; HB3, strain HB3 (chloroquine sensitive), mean ± SD n=3): 0.0042 ± 0.0008 µM
- IC50 ([5]; NF54, strain NF54 (chloroquine sensitive), mean ± SD n=3): 0.0052 ± 0.001 µM
- IC50 ([5]; TM90C2B, strain TM90C2B (chloroquine resistant), mean ± SD n=3): 0.0073 ± 0.0014 µM
- IC50 ([5]; read-out: mean IC50 range, panel of 10 sensitive and multidrug-resistant P. falciparum isolates): 0.0029 to 0.014 µM
- IC50 ([5]; strain 7G8 (chloroquine resistant), mean ± SD n=3): 0.0029 ± 0.0006 µM
- IC50 ([5]; strain D6 (chloroquine sensitive), mean ± SD n=3): 0.0085 ± 0.0016 µM
- IC50 ([5]; strain FCB (chloroquine resistant), mean ± SD n=3): 0.014 ± 0.0027 µM
- IC50 ([5]; strain K1 (chloroquine resistant), mean ± SD n=3): 0.0042 ± 0.0008 µM
- IC50 ([5]; strain V1/S (chloroquine resistant), mean ± SD n=3): 0.0042 ± 0.0008 µM
- IC50 (P. falciparum 3D7): 0.0051 ± 0.00081 µM
- mouse micronucleus test result (Mouse micronucleus test): negative
- IC50 [6]: 0.0157 µM
- loss of huRBC [7]: did not show a significant drug-dependent loss of huRBC
- IC50 ([8]; K1, FC27 (CQ S) lab line): 0.0207 µM
- IC50 ([8]; K1, K1 (CQ R) lab line): 0.0318 µM
- IC50 [9]: > 3.5 µM
- IC50 (CYP3A4): > 20 µM
- MTD [10]: 300 mg/kg
- IC50 [11]: 0.0105 µM
- CLint scaled [12]: 4.2 L/h/kg
- Microsome-Predicted EH ([13]; n=1): 0.38
- half-life at 1 µM ([13]; n=1, read-out: Degradation half-life): 2.88 h
- microsomal CLint at 1 µM ([13]; n=1, read-out: In vitro CLint): 10 µL/min/mg
- Absorption rate constant Ka [14]: 0.31 ^† h^−1
- Central clearance, CL [14]: 0.41 l^ h^−1 kg^−1
- Inter-compartmental clearance 1, Q1 [14]: 0.45 L/h/kg
- Inter-compartmental clearance 2, Q2 [14]: 0.020 L/h/kg
- IC50 (CYP2D6): > 20 µM
- inhibitory activity (Nav1.5 channel): no inhibitory activity
- Absorption rate constant Ka ([15]; PO 10 mg kg^−1): 0.79 h⁻¹
- bioavailability ([15]; female, Swiss Outbred, plasma, oral, 10 mg kg^−1): 82%
- clearance ([15]; female, Swiss Outbred, plasma, other: intravenous and oral, fitted together): 4.3 L/h/kg
- CLint scaled [16]: 3.48 L/h/kg
- half-life at 1 µM [17]: 13 h
- IC50 (CYP2C9): > 20 µM
- inhibitory activity (Cav1.2 channel): no inhibitory activity
- AUC ED90 ([18]; single oral dose): 1.2 µg·h/mL
- parasite clearance ([18]; single oral dose 30 mg kg^−1): Complete parasite clearance; also recorded: maximum parasite clearance
- ED90 ([18]; single oral dose, calculated): 11.6 mg/kg
- finding at 100 mg kg^−1 [19]: body weight loss
- tolerability [19]: not tolerated
- clearance [20]: 0.306 L/h/kg
- Absorption rate constant Ka ([21]; PO 5 mg kg^−1): 0.33 h⁻¹
- bioavailability ([21]; male, Beagle, plasma, oral, 5 mg kg^−1): 40%
- clearance ([21]; male, Beagle, plasma, other: intravenous and oral, fitted together): 1.1 L/h/kg
- NOAEL (in vivo; female): 50 mg/kg/day
- AUC(0-t) (in vivo; female, 50 mg/kg): 14.8 µg·h/mL
- Cmax (in vivo; female, 50 mg/kg): 1.07 µg/mL
- NOAEL (in vivo; male): 100 mg/kg/day
- AUC(0-t) (in vivo; male, 100 mg/kg): 19.6 µg·h/mL
- Cmax (in vivo; male, 100 mg/kg): 1.2 µg/mL
- microsomal CLint (in vitro): 23 µL/min/mg
